Values belong to the molecule of their own block, whether it stands above or below them.
Assays:
[1] = Thermogravimetric analysis of the Form III solvate; format: physicochemical; settings: 6 milligram sample, nitrogen purge, increase of 5° C. per minute (FIG. 4)
Method: Suitable temperatures for the conversion of the Form III solvate to the Form II crystal structure of 6-O-methylerythromycin A can vary depending on the conditions of the reaction. […] At atmospheric pressure, the preferred temperatures for the conversion of the Form III solvate to Form II are from about 80° C. to about 180° C. The more preferred temperatures for the conversion are from about 90° C. to about 105° C. Thermogravimetric analysis was conducted in the following manner. A T.A. Instruments Hi-Res thermogravimetric analyzer with Thermogravimetric Analyzer module 2950 was used along with DuPont 2100 TGA software version 5.1 A. The analysis parameters were: sample weight 6.3640 milligrams; heating rate was room temperature to 200° C. at 5° C./minute under a nitrogen purge.

[2] = Crystal form of the recrystallized solid after drying/heating, by powder X-ray diffraction; format: physicochemical
Method: Solids from the recrystallization were prepared according to the methods described above and analyzed under standard conditions with a calibrated Scintag X-ray diffraction system.
The wet solid was allowed to dry at room temperature. The air-dried sample was analyzed and the powder X-ray diffraction data was consistent with the powder X-ray diffraction pattern of a 6-O-methylerythromycin A Form III crystal structure. The air-dried sample was heated to a temperature between about 40° C. to about 45° C. in a calibrated vacuum oven for five days at atmospheric pressure.
A wet solid sample obtained from the recrystallization was heated in a calibrated convection oven to a temperature between about 100° C. and 105° C. […] The testing conditions and the corresponding result are summarized below in Table 1.
Crystallographic data was obtained by solvate single crystal analysis using a Scintag XDS-2000 powder X-ray diffraction system. Samples for X-ray diffraction analysis were prepared by spreading the sample powder (with no prior grinding required) in a thin layer on the sample holder and gently flattening the sample with a microscope slide. A Scintag X-ray Diffraction system was used with the following parameters: X-ray source is CuKα; range is 2-35°; scan rate is 1.00 degree/minute; step size is 0.0300 degree; and wavelength is 1.54060 angstroms.

Temperature of conversion of Form III solvate to Form II crystal structure [1]: about 175 °C
Structure (SMILES): CC[C@H]1OC(=O)[C@H](C)[C@@H](OC2CC(C)(OC)C(O)C(C)O2)[C@H](C)[C@@H](OC2OC(C)CC(N(C)C)C2O)[C@@](C)(OC)C[C@@H](C)C(=O)[C@H](C)[C@@H](O)[C@]1(C)O (some centres unmarked) [Form III solvate, 6-O-methylerythromycin A acetonitrile solvate]

Analytical Result (crystal form by powder X-ray diffraction) ([2]; wet solid from acetonitrile recrystallization): Form III spectra
Structure (SMILES): CC[C@H]1OC(=O)[C@H](C)[C@@H](OC2CC(C)(OC)C(O)C(C)O2)[C@H](C)[C@@H](OC2OC(C)CC(N(C)C)C2O)[C@@](C)(OC)C[C@@H](C)C(=O)[C@H](C)[C@@H](O)[C@]1(C)O (some centres unmarked) [Sample 1, 6-O-methylerythromycin A acetonitrile solvate]

Analytical Result (crystal form by powder X-ray diffraction) ([2]; air dried solid, room temperature): Form III spectra
Structure (SMILES): CC[C@H]1OC(=O)[C@H](C)[C@@H](OC2CC(C)(OC)C(O)C(C)O2)[C@H](C)[C@@H](OC2OC(C)CC(N(C)C)C2O)[C@@](C)(OC)C[C@@H](C)C(=O)[C@H](C)[C@@H](O)[C@]1(C)O (some centres unmarked) [Sample 2, 6-O-methylerythromycin A acetonitrile solvate]

Analytical Result (crystal form by powder X-ray diffraction) ([2]; heat 40° C.-45° C., 5 days): Form III spectra
Structure (SMILES): CC[C@H]1OC(=O)[C@H](C)[C@@H](OC2CC(C)(OC)C(O)C(C)O2)[C@H](C)[C@@H](OC2OC(C)CC(N(C)C)C2O)[C@@](C)(OC)C[C@@H](C)C(=O)[C@H](C)[C@@H](O)[C@]1(C)O (some centres unmarked) [Sample 3, 6-O-methylerythromycin A acetonitrile solvate]

Analytical Result (crystal form by powder X-ray diffraction) ([2]; heat to 100° C.-105° C., 24 hours): Form II spectra
Structure (SMILES): CC[C@H]1OC(=O)[C@H](C)[C@@H](OC2CC(C)(OC)C(O)C(C)O2)[C@H](C)[C@@H](OC2OC(C)CC(N(C)C)C2O)[C@@](C)(OC)C[C@@H](C)C(=O)[C@H](C)[C@@H](O)[C@]1(C)O (some centres unmarked) [Sample 4, 6-O-methylerythromycin A]

— patent US6627743B1, “6-O-methylerythromycin A crystal form III” (Abbott Laboratories, priority 1999, dated 2003)
